According to US20040191240A1, “Composition and method for nerve regeneration” (priority 2003, published 2004):
Entries after “also recorded” stand apart in the source; their conditions may differ. Where no end group is shown, it is not given here.

Key:
[1] = biological target: Rho-kinase (GST-CAT; aa 6-553) (Bos taurus, UniProt Q28021); test: In vitro binding assay of p21 and Rho-kinase; details: p21 1 nM
[2] = system: Rho kinase fragment (aa 1-543); test: Rho-kinase kinase assay in vitro (S6 kinase substrate peptide); assay type: biochemical
male Wistar rats [3] = test: Spinal cord injury, p21 and TAT-bound p21, BBB score; assay type: in vivo, rat; details: osmotic pump to the injured site for 2 weeks; observed from day 2 for 6 weeks
Experimental: 200 g male Wistar rats were used. After a ninth thoracic vertebrae laminectomy was performed, the dorsal half of the spinal cord was dissected. […] In this case, the tip of a tube connected to the pump was left in the medullary space.
After spinal cord injury, the functional recovery was assessed using the BBB score (Basso-Beattie-Bresnahan (BBB) Locomotor Rating; Basso, D. M., Beattie, M. S., Bresnahan, J. C., J. Neurotrauma 12 (1):1-21 (1995) ). Observation was carried out from day 2 after injury for 6 weeks.

[4] = system: cerebellar granule neurons from P7 rats; test: Neurite outgrowth (growth) assay, cerebellar neurons; assay type: cell-based, rat; details: data not shown
[5] = system: cerebellar granule neurons; test: Ca2+ fluorescence imaging (Oregon-green 488BAPTA-1 and Fura Red); assay type: cell-based; details: p7 rat cerebellar granule neurons; inhibitor or antibody with MAG
DRG neurons = test: Neurite outgrowth assay, adult DRG neurons; assay type: cell-based, mouse; details: peptide 100 nM
cerebellar neurons = test: Neurite outgrowth assay, post-natal cerebellar neurons; assay type: cell-based, mouse
RhoA = test: Affinity-precipitation of GTP-RhoA in cerebellar neurons; assay type: cell-based, mouse; details: TAT-Pep5 1 μM; Nogo peptide 4 μM, MAG-Fc 25 μg/ml; 30 min
Experimental: 293 cells were transfected with pcDNA3 vectors containing wild type RhoA whose NH2-terminus is tagged with HA (Yamashita, T. et al., Neuron. 24:585-593, 1999) and/or full-length human p75 by lipofection using Lipofectamine 2000 (Gibco BRL). Cerebellar neurons from P9 mice were isolated as described previously (Cai et al, Neuron, 22:89-101, 1999). Cells were lysed in 50 mM Tris (pH 7.5), 1% Triton X-100, 0.5% sodium deoxycholate, 0.1% SDS, 500 mM NaCl, 10 mM MgCl2, with leupeptin and aprotinin, each at 10 μg/ml. Cell lysates were clarified by centrifugation at 13,000×g at 4° C. for 10 min, and the supernatants were incubated with the 20 μg of GST-Rho binding domain of Rhotekin beads (Upstate Biotech.) at 4° C. for 45 min. The beads were washed 4 times with washing buffer (50 mM Tris (pH 7.5) containing 1% Triton X-100, 150 mM NaCl, 10 mM MgCl2, 10 μg/ml each of leupeptin and aprotinin). Bound Rho proteins were detected by Western blotting using a monoclonal antibody against RhoA (Santa Cruz Biotechnology).
Amino-terminally FLAG-tagged human p75 or the deletion mutants of p75 ICD were cloned into pcDNA3.1 expression plasmid, and were transfected with 293T cells. […] Bound Rho proteins were detected by Western blotting using a monoclonal antibody against RhoA (Santa Cruz Biotechnology).

male Wistar rats [6] = test: Spinal cord injury (dorsal half dissected, ninth thoracic vertebra), agent pumped to the injured site; assay type: in vivo, rat; details: continuous osmotic pump to the injured site; versus control peptide
Experimental: 200 g male Wistar rats were used. After the ninth thoracic vertebrae laminectomy was performed, the dorsal half of the spinal cord was dissected. A continuous osmotic pump was used to continuously administer either TAT(PTD domain)-fused Pep5 (TAT-[…]) (SEQ ID NO. 2) or TAT(PTD domain)-fused control peptide (TAT-[…]) (SEQ ID NO. 15) to the injured site for 6 weeks ([…]). In this case, the tip of a tube connected to the pump was left in the medullary space. After spinal cord injury, the functional recovery was assessed using the BBB score. The animals were observed on day 7, 14, 21, 28, 35, and 42 after injury. These experiments were carried out using techniques described in Fournier A. E., Takizawa, B. T., Strittmatter, S. M., J. Neurosci. 2003, 23, 1416-1423.
200 g male Wistar rats were used. After the ninth thoracic vertebrae laminectomy was performed, the dorsal half of the spinal cord was dissected. A continuous osmotic pump was used to continuously administer either TAT-fused Pep5 or TAT (PTD domain)-fused control peptide to the injured site.

mice = test: Spinal cord injury, similar experiments for mice (Example 2-7); assay type: in vivo, mouse
Experimental: Similar experiments were carried out for mice as described above.

Chain of Rho-kinase (GST-CAT; aa 6-553) (Q28021 6-553): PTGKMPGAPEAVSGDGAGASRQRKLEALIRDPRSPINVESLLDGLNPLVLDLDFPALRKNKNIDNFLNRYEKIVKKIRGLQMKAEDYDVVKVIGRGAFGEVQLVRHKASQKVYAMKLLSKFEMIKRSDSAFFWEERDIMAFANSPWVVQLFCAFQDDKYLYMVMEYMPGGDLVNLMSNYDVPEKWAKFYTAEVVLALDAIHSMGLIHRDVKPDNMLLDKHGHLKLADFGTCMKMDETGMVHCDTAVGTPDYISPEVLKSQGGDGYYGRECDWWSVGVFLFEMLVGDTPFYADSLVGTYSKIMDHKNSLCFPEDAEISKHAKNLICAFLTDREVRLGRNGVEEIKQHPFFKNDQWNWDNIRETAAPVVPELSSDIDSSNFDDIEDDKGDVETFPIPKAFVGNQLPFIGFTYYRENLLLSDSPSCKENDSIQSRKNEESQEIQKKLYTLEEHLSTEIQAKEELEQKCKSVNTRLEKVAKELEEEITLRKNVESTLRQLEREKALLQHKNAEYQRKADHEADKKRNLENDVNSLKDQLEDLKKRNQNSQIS

p21: recombinant full-length p21 (1-164 in SEQ ID NO. 23), cyclin-dependent protein kinase inhibitor
in vitro interaction with the catalytic region of Rho-kinase [1]: bound to each other in vitro | Rho-kinase activity toward S6 kinase substrate peptide [2]: inhibited the Rho-kinase activity toward S6 kinase substrate peptide in a dose-dependent manner | functional recovery after spinal cord injury (BBB score) (male Wistar rats [3]): not sufficiently observed

Cn1c2ccccc2c2c3c(c4c5ccccc5n(CCC#N)c4c21)CNC3=O [G06976]
neurite outgrowth by MAG-Fc or Nogo peptide when another PKC inhibitor was used [4]: Same results

COc1ccc2c(c1)CC[C@@H]1[C@@H]2CC[C@]2(C)[C@@H](NCCCCCCN3C(=O)C=CC3=O)CC[C@@H]12 [U73122]
effect on Ca2+ elevation induced by MAG [5]: blocked

TAT-CFFRGGFFNHNPRYC ({TAT}-CFFRGGFFNHNPRYC; cysteine pairing not given here) [TAT-Pep5, Pep5 fused with the amino-terminal 11 amino acid protein transduction domain of HIV TAT]
responsiveness of DRG neurons to MAG (25 μg/ml) and the Nogo peptide (4 μM) (DRG neurons): abolished their responsiveness | inhibitory effect of MAG (25 μg/ml) and the Nogo peptide (4 μM) on post-natal cerebellar neurons (cerebellar neurons): efficiently silenced the inhibitory effect | activation of RhoA induced by MAG-Fc or the Nogo peptide (RhoA): inhibited the activation of RhoA; also recorded: completely abolishes these effects | nerve regeneration after spinal cord injury (male Wistar rats [6]): nerve regeneration was significantly observed | nerve regeneration after spinal cord injury (mice): nerve regeneration was similarly observed
